Data from patent US20250213564A1, “COMPOSITIONS AND METHODS FOR THE TREATMENT OF ALZHEIMER'S DISEASE AND OTHER NEUROGENERATIVE DISEASE” (priority 2022, published 2025).
Where a name gives a salt, the structure may show the parent alone.

Assays:
[1] = system: Ctrl and APP/PS1 (AD) mice; assay: Marble burying (MB); format: in vivo; settings: for percentage of marbles buried: 2-month-old female AD mice
Experimental: The MB assay was conducted in a clean cage (10.5 in×5.5 in) containing soft pliable Beta Chip bedding (Northeastern Products Corp, Warrensburg, NY). The cage contained 16 marbles set up in 4 rows of 4 across. Mice were given 20 minutes to explore and bury. At the end of the assay, the percentage of marbles buried was calculated.

[2] = system: Ctrl and APP/PS1 (AD) mice; assay: Contextual fear conditioning (CFC), 3-shock; format: in vivo; settings: for memory retrieval: 2-month-old male AD mice; for learning (freezing during training): male AD mice
Experimental: A 3-shock CFC paradigm was administered as previously described (Denny et al., 2014; Drew et al., 2010). Fear conditioning was conducted in chambers obtained from Coulborn Instruments (Allentown, PA) with internal dimensions of approximately 20 cm wide×16 cm deep×20.5 cm high. The chambers had metal walls on each side, clear plastic front and back walls and ceilings, and stainless-steel bars on the floor. A house light (CM1820 bulb, 28 V, 100 mA) mounted directly above the chamber provided illumination. Each chamber was located inside a larger, insulated, plastic cabinet that provided protection from outside light and noise. Each cabinet contained a ventilation fan that was operated during the sessions. A paper towel dabbed with lemon solution was placed underneath the chamber floor. Mice were held outside the experimental room in their home cages prior to testing and transported to the conditioning apparatus individually in standard mouse cages. Chambers were cleaned with 70% EtOH between each set of mice. Training sessions were conducted using a 3-shock protocol. Mice were placed into the conditioning chamber and received shocks at 180 s, 240 s, and 300 s (2 s duration each, 0.75 mA). Fifteen seconds after the last shock, mice were removed from the chamber. Overall, the training session lasted 317 s. […] All sessions were scored for freezing using FreezeFrame4 (Actimetrics, Wilmette, IL).

[3] = system: Ctrl and APP/PS1 (AD) mice; settings: male Ctrl mice; single injection; compared to Ctrl mice
Experimental: The APP/PS1 (AD) mice were previously bred with the ArcCreER^T2×enhanced yellow fluorescent protein (EYFP) mice (Denny et al., 2014; Perusini et al., 2017). Female and male mice were used in all experiments. The Ctrl mice were APP/PS1 (−)×ArcCreER^T2 (+) or (−)×EYFP (+/−), and the AD mice were APP/PS1 (+)×ArcCreER^T2 (+) or (−)×EYFP (+/−). Mice were housed 4-5 per cage in a 12-h (06:00-18:00) light-dark colony room at 22° C. Mice had ad libitum access to food and water.
All drugs were resuspended in saline and made fresh for each experiment. […] These dosages were chosen based upon previous studies (Brachman et al., 2016; Chen et al., 2020a). […] All drugs were prepared in physiological saline and administered intraperitoneally (i.p.) in volumes of 0.1 cc per 10 mg body weight.
Testing was performed as previously described (Brachman et al., 2016; Chen et al., 2020a). Briefly, the testing apparatus consisted of a plastic box (50×50×20 cm). The floor was covered with approximately 2 cm of wooden bedding and the arena was brightly lit (approximately 1000 lux). […] The latency of the mice to begin eating was recorded. Immediately after the latency was recorded, the food pellet was removed from the arena. The mice were then placed into their home cage and the amount of food consumed in 5 min was measured (home cage consumption), followed by an assessment of post-restriction weight. […]

[4] = biological target: hERG (human Ether-a-go-go Related Gene) channels (Homo sapiens, UniProt Q12809); settings: cited from earlier work
[5] = mouse, in vivo
[6] = system: 5xFAD mouse model of Alzheimer's disease (AD); settings: Giannoni et al., 2013; cited from earlier work

Chain of hERG (human Ether-a-go-go Related Gene) channels (Q12809 whole entry): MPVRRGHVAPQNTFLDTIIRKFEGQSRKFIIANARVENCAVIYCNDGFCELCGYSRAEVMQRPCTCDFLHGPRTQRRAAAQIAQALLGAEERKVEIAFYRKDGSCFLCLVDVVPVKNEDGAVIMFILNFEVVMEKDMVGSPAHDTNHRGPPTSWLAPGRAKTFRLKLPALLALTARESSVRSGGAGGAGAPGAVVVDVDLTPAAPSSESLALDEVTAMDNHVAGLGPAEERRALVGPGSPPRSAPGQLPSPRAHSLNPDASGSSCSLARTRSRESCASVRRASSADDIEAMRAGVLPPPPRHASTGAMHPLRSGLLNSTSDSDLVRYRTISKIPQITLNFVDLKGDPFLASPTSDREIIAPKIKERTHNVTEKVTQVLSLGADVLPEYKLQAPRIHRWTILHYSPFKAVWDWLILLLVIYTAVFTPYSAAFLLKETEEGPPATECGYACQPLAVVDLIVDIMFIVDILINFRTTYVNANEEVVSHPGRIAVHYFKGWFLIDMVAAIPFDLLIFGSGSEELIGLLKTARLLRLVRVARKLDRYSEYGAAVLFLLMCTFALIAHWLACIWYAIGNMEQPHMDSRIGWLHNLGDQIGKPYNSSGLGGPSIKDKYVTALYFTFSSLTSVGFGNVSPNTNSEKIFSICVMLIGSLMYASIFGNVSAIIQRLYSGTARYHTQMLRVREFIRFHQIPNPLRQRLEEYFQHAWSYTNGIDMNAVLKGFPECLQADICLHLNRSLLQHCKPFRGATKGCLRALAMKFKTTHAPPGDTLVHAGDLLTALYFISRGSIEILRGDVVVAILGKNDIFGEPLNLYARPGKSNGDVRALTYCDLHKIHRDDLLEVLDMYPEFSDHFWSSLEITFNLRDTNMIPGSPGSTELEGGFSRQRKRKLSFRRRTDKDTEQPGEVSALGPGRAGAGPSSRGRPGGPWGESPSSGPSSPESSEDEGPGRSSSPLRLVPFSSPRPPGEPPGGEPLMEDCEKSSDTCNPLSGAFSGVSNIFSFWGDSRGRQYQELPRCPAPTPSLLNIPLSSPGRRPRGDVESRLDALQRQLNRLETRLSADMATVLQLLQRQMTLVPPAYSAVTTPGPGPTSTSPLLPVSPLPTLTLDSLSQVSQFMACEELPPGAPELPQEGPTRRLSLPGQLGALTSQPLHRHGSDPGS

## CNC1(c2ccccc2Cl)CCCCC1=O (racemic) [(R,S)-ketamine, (RS)-2-(2-chlorophenyl)-2-(methylamino)cyclohexanone]
[1]; female Ctrl mice, prophylactic administration, FIG. 3
  perseverative behavior (number of marbles buried): decreased
[2]; 1×(R,S)-ketamine 30 mg/kg
  memory retrieval: improved
[2]; single injection
  learning (freezing during training): Neither (R,S)-ketamine nor prucalopride, whether administered solely or jointly, affected learning
[2]; male Ctrl mice, single injection, compared to other groups
  freezing during training: increased

## COCCCN1CCC(NC(=O)c2cc(Cl)c(N)c3c2OCC3)CC1 [prucalopride, 4-amino-5-chloro-2,3-dihydro-N-[1-3-methoxypropyl)-4-piperidinyl]-7-benzofuran carboxamide monohydrochloride]
[3]
  latency to feed in home cage: more quickly
[1]; 7×prucalopride 1.5 mg/kg
  percentage of marbles buried: decreased
[1]; 7×prucalopride 3 mg/kg
  percentage of marbles buried: decreased
[4]
  affinity for the hERG channels: no affinity
[2]; 7×prucalopride 3 mg/kg
  memory retrieval: improved
[2]; single injection
  learning (freezing during training): Neither (R,S)-ketamine nor prucalopride, whether administered solely or jointly, affected learning
[5]
  weight and weight loss: neither weight nor weight loss was impacted

## CCCCN1CCC(CCC(=O)c2cc(Cl)c(N)cc2OC)CC1.Cl [RS-67,333, 1-(4-amino-5-chloro-2-methoxyphenyl)-3-[1(n-butyl)-4-piperidinyl]-1-propanone HCl]
[6]
  behavioral deficits: effective in improving
  hippocampal astrogliosis and microgliosis: decreasing
  number of amyloid plaques and level of amyloid beta (Aβ) species: decreasing
